Data from PMC12920294, “Optimizing uPAR-targeting radiopeptides for improved tissue distribution: progress towards radionuclide therapy” (European Journal of Nuclear Medicine and Molecular Imaging, 2025).
Like-named read-outs stand apart in the source and are kept apart here.

Legend:
[1] = tested on: HEK-uPAR xenograft-bearing mice; conditions: mouse, in vivo
in vivo = conditions: CD1 nude, mouse, 0.5 nmol/mouse, total radioactivity
[2] = format: in vitro ADME; conditions: 1 µM
Protocol: The ^177Lu-labeled peptides (50 MBq/nmol) were incubated in mouse or human blood plasma (10 MBq/200 µL) over an incubation period of 24 h at 37 °C. Aliquots and control samples of the radiopeptides diluted in saline were analyzed after 1 h, 4 h and 24 h using thin layer chromatography (TLC) as previously reported (Supplementary Material). The distribution coefficients (logD values) of the ^177Lu-labeled peptides (50 MBq/nmol) were determined using a shake-flask method according to a previously published procedure (Supplementary Material).
Methods: A sample of each radiopeptide (50 MBq/nmol) was added to mouse blood plasma (Lot: 32321, Rockland Immunochemicals Inc., USA) or to human blood plasma (Stiftung Blutspende SRK Aargau-Solothurn, Switzerland) to obtain an activity concentration of 10 MBq/200 µL. The test samples were incubated at 37 °C for up to 24 h. Control samples referred to the radiopeptides which were instead diluted in saline at an activity concentration of 10 MBq/200 µL. Aliquots of each sample (2 µL, ~100 kBq) were taken after 1 h, 4 h and 24 h and investigated by means of thin layer chromatography (TLC). The employed method involved reversed-phase TLC plates (MERCK Analytical Chromatography, TLC Silica gel 60 RP-18 F254s) as stationary phase and ACN/citrate buffer (3:7; v/v; pH 5.5) as mobile phase. After the eluent reached the front line, the TLC plates were dried and exposed to a phosphor screen (Super resolution screen PSR10450013, PerkinElmer) for 1 min. The respective screen was developed using a storage phosphor system (Cyclone Plus, PerkinElmer) and analyzed using the OptiQuant Software (version 5.0, Bright Instrument Co Ltd., PerkinElmer).

[3] = tested on: HEK-uPAR xenograft-bearing mice; conditions: mouse, in vivo; remark: listed apart in the source
Protocol: Single-photon emission computed tomography/computed tomography (SPECT/CT) experiments were performed using a small-animal SPECT/CT camera (NanoSPECT/CTTM, Mediso Medical Imaging Systems, Budapest, Hungary) as described previously (Supplementary Material). HEK-uPAR xenografted nude mice were scanned at 1 h, 4 h, 24 h […] after injection of the respective radiopeptide (25 MBq, 0.5 nmol, in 100 μL 0.9% NaCl containing 0.05% bovine serum albumin (BSA)) The images were prepared using VivoQuant post-processing software (version 3.5, inviCRO Imaging Services and Software, Boston, USA). A Gauss post-reconstruction filter (full width at half maximum, 1.0 mm) was applied and the scale of activity was set as indicated on the images (minimum value = 0.2 Bq/voxel, maximum value = 20 Bq/voxel). Methods: SPECT/CT experiments were performed with CD1 nude mice (Crl:CD1-Foxn1^nu) approximately 3-9 weeks after HEK-uPAR cell inoculation. The mice were scanned 1 h, 4 h and 24 h post injection (p.i.) of the respective radiopeptide (25 MBq, 0.5 nmol, 100 μL, diluted in 0.9% NaCl containing 0.05% bovine serum albumin (BSA)). Imaging studies were performed using a four-head, multiplexing, multi-pinhole small-animal SPECT/CT camera (NanoSPECT/CT^TM, Mediso Medical Imaging Systems, Budapest, Hungary). Each head was outfitted with a tungsten-based aperture of nine 1.4 mm-diameter pinholes and a thickness of 10 mm. CT scans of 7-9 min duration were followed by SPECT scans of 45-50 min. The images were acquired using Nucline Software (version 10.2, Mediso Ltd., Budapest, Hungary). The real-time CT reconstruction used a cone-beam filtered backprojection. The reconstruction of SPECT data was performed with HiSPECT software (version 1.4.3049, […] GmbH, Göttingen, Germany) using γ-energies of 56.1 keV (± 10%), 112.9 keV (± 10%) and 208.4 keV (± 10%) for lutetium-177. The images were prepared using VivoQuant post-processing software (version 3.5, inviCRO Imaging Services and Software, Boston, USA). A Gauss post-reconstruction filter (full width at half maximum, 1.0 mm) was applied and the scale of activity was set as indicated on the images (minimum value = 0.2 Bq/voxel, maximum value = 20 Bq/voxel).

- Xgrft-to-liver ratio [1]: 20 ± 3
- tissue uptake at 4 h (in vivo; Blood uptake): 3.4 ± 0.7 %ID/g
- tissue uptake at 24 h (in vivo; Blood uptake): 0.05 %ID/g
- tissue uptake at 4 h (in vivo; Bone uptake): 0.5 ± 0.04 %ID/g
- tissue uptake at 24 h (in vivo; Bone uptake): 0.19 ± 0.01 %ID/g
- tissue uptake at 4 h (in vivo; Brain uptake): 0.08 ± 0.01 %ID/g
- tissue uptake at 24 h (in vivo; Brain uptake): < 0.03 %ID/g
- tissue uptake at 4 h (in vivo; HEK-uPAR xenograft uptake): 14 ± 1 %ID/g
- tissue uptake at 24 h (in vivo; HEK-uPAR xenograft uptake): 7.3 ± 0.4 %ID/g
- tissue uptake at 4 h (in vivo; Heart uptake): 1.3 ± 0.2 %ID/g
- tissue uptake at 24 h (in vivo; Heart uptake): 0.12 ± 0.01 %ID/g
- tissue uptake at 4 h (in vivo; Intestines uptake): 0.58 ± 0.14 %ID/g
- tissue uptake at 24 h (in vivo; Intestines uptake): 0.17 ± 0.02 %ID/g
- tissue uptake at 4 h (in vivo; Kidneys uptake): 3.7 ± 0.4 %ID/g
- tissue uptake at 24 h (in vivo; Kidneys uptake): 2.1 ± 0.2 %ID/g
- tissue uptake at 4 h (in vivo; Liver uptake): 1.2 ± 0.1 %ID/g
- tissue uptake at 24 h (in vivo; Liver uptake): 0.38 ± 0.06 %ID/g
- tissue uptake at 4 h (in vivo; Lung uptake): 2.1 ± 0.4 %ID/g
- tissue uptake at 24 h (in vivo; Lung uptake): 0.29 ± 0.02 %ID/g
- tissue uptake at 4 h (in vivo; Muscle uptake): 0.37 ± 0.03 %ID/g
- tissue uptake at 24 h (in vivo; Muscle uptake): 0.06 ± 0.01 %ID/g
- tissue uptake at 4 h (in vivo; Pancreas uptake): 0.63 ± 0.27 %ID/g
- tissue uptake at 24 h (in vivo; Pancreas uptake): 0.09 ± 0.01 %ID/g
- tissue uptake at 4 h (in vivo; Salivary glands uptake): 0.87 ± 0.2 %ID/g
- tissue uptake at 24 h (in vivo; Salivary glands uptake): 0.23 ± 0.03 %ID/g
- tissue uptake at 4 h (in vivo; Spleen uptake): 0.77 ± 0.01 %ID/g
- tissue uptake at 24 h (in vivo; Spleen uptake): 0.42 ± 0.04 %ID/g
- tissue uptake at 4 h (in vivo; Stomach uptake): 0.54 ± 0.12 %ID/g
- tissue uptake at 24 h (in vivo; Stomach uptake): 0.11 ± 0.02 %ID/g
- Human blood plasma stability, intact radiopeptide ([2]; 1 h): 100 ± 1%
- Mouse blood plasma stability, intact radiopeptide ([2]; 1 h): 100 ± 1%
- Human blood plasma stability, intact radiopeptide ([2]; 4 h): 99 ± 1%
- Mouse blood plasma stability, intact radiopeptide ([2]; 4 h): 99 ± 2%
- Human blood plasma stability, intact radiopeptide ([2]; 24 h): 95 ± 2%
- Mouse blood plasma stability, intact radiopeptide ([2]; 24 h): 89 ± 3%
SMILES: Cc1ccc(CCCC(=O)NCCOCCOCCOCCOCCOCCC(=O)NCCCC[C@H](NC(=O)CN2CCN(CC(=O)O)CCN(CC(=O)O)CCN(CC(=O)O)CC2)C(=O)N[C@@H](CC(=O)O)C(=O)N[C@@H](CC2CCCCC2)C(=O)N[C@@H](Cc2ccccc2)C(=O)N[C@H](CO)C(=O)N[C@H](CCCNC(=N)N)C(=O)N[C@@H](Cc2ccc(O)cc2)C(=O)N[C@@H](CC(C)C)C(=O)N[C@@H](Cc2c[nH]c3ccccc23)C(=O)N[C@@H](CO)C(N)=O)cc1 [[^177Lu]Lu-uPAR-18, metal not drawn]
- SPECT/CT: accumulation in HEK-uPAR xenograft [3]: highest at 1 h p.i. and relatively well retained over the following hours
